Values quoted from earlier work as cited in patent US20230240985A1, “STABLE PHARMACEUTICAL COMPOSITION OF TOPIRAMATE” (ALKEM LABORATORIES LIMITED, priority 2022, published 2023).

SMILES: CC1(C)O[C@@H]2[C@@H](CO[C@@]3(COS(N)(=O)=O)OC(C)(C)O[C@@H]23)O1 [Topiramate, 2,3:4,5-Di-O-isopropylidine-β-D-fructopyranose sulfamate]
- solubility in organic solvents (acetone, chloroform, dimethylsulfoxide, and ethanol): freely soluble
- solubility in alkaline solutions (alkaline solutions containing sodium hydroxide or sodium phosphate, pH of 9 to 10): most soluble
- stability in aqueous solution (aqueous solution): not stable
- pH of saturated solution (saturated solution): 6.3
